Laboratory results: patent US8637550B2, “Heteroaryl diamide compounds useful as MMP-13 inhibitors” (Boehringer Ingelheim International GmbH, priority 2008, dated 2014)

Molecular target: MMP-13 (Homo sapiens, UniProt P45452)
Assay: EnzoLyte 520 Generic MMP Assay Kit, 5-FAM/QXL520 FRET peptide substrate
Type: biochemical
Source text: The EnzoLyte™ 520 Generic MMP Assay Kit (AnaSpec Inc.) can detect the activity of several MMPs including MMP-1, 2, 3, 7, 8, 9, 13, and 14. This kit uses a 5-FAM/QXL™520 fluorescence resonance energy transfer (FRET) peptide as an MMP substrate.

Structure (SMILES)	IC50 [nM]
CNC(=O)[C@@H](NC(=O)c1ccc(-c2cccc(CNC(=O)C3CCCCO3)c2)o1)C(C)C (stereo partly drawn) [N-[3-(5-{[(1S)-2-methyl-1-(methylcarbamoyl)propyl]carbamoyl}-2-furyl)benzyl]tetrahydro-2H-pyran-2-carboxamide]	101
CCNC(=O)[C@@H](NC(=O)c1ccc(-c2ccc(C#N)cc2)o1)C1CCCCC1 [5-(4-cyanophenyl)-N-[(1S)-1-cyclohexyl-2-(ethylamino)-2-oxoethyl]furan-2-carboxamide]	295
CNC(=O)[C@@H](NC(=O)c1ccc(-c2ccc(-c3ccc(C#N)cc3)cn2)o1)C(C)C [5-[5-(4-Cyano-phenyl)-pyridin-2-yl]-furan-2-carboxylic acid ((S)-2-methyl-1-methylcarbamoyl-propyl)-amide]	22
CNC(=O)[C@@H](NC(=O)c1ccc(-c2ccc(OCc3ccncc3)cn2)o1)C1CCCCC1 [N-[(1S)-1-cyclohexyl-2-(methylamino)-2-oxoethyl]-5-[5-(pyridin-4-ylmethoxy)pyridin-2-yl]furan-2-carboxamide]	1
CNC(=O)[C@@H](NC(=O)c1ccc(-c2cccc(CNC(=O)OCC(C)C)c2)o1)C1CCCCC1 [2-Methylpropyl [3-(5-{[(1S)-1-cyclohexyl-2-(methylamino)-2-oxoethyl]carbamoyl}furan-2-yl)benzyl]carbamate]	240
CNC(=O)[C@@H](NC(=O)c1ccc(-c2cccc(CNC(=O)c3cc4ccccc4o3)c2)o1)C(C)C [N-[3-(5-{[(1S)-2-methyl-1-(methylcarbamoyl)propyl]carbamoyl}-2-furyl)benzyl]-1-benzofuran-2-carboxamide]	8
CNC(=O)[C@@H](NC(=O)c1ccc(-c2ccc(NC(=O)OC)cc2)o1)C1CCCCC1 [Methyl [4-(5-{[(1S)-1-cyclohexyl-2-(methylamino)-2-oxoethyl]carbamoyl}furan-2-yl)phenyl]carbamate]	225
CNC(=O)[C@@H](NC(=O)c1ccc(-c2ccc(-c3cccc(F)c3)cn2)o1)C(C)C [5-[5-(3-Fluoro-phenyl)-pyridin-2-yl]-furan-2-carboxylic acid ((S)-2-methyl-1-methylcarbamoyl-propyl)-amide]	325
CNC(=O)[C@@H](NC(=O)c1ccc(-c2cccc(CNC(=O)c3cc(C)n(C)n3)c2)o1)C1CCCCC1 [N-[3-(5-{[(1S)-1-cyclohexyl-2-(methylamino)-2-oxoethyl]carbamoyl}furan-2-yl)benzyl]-1,5-dimethyl-1H-pyrazole-3-carboxamide]	72
CNC(=O)[C@@H](NC(=O)c1ccc(-c2cccc(CNC(=O)c3cn4ccc(C)cc4n3)c2)o1)C1CCCCC1 [N-[3-(5-{[(1S)-1-cyclohexyl-2-(methylamino)-2-oxoethyl]carbamoyl}furan-2-yl)benzyl]-7-methylimidazo[1,2-a]pyridine-2-carboxamide]	137
CNC(=O)[C@@H](NC(=O)c1ccc(-c2ccc(NC(=O)c3cnn(C)c3)cc2)o1)C1CCCCC1 [N-[4-(5-{[(1S)-1-cyclohexyl-2-(methylamino)-2-oxoethyl]carbamoyl}furan-2-yl)phenyl]-1-methyl-1H-pyrazole-4-carboxamide]	180
Cc1cccc(C(=O)Nc2ccc(-c3ccc(C(=O)N[C@H](C(=O)NC[C@@H](C)O)C4CCCCC4)o3)cc2)n1 [N-[4-(5-{[(1S)-1-cyclohexyl-2-{[(2R)-2-hydroxypropyl]amino}-2-oxoethyl]carbamoyl}furan-2-yl)phenyl]-6-methylpyridine-2-carboxamide]	22
CNC(=O)[C@@H](NC(=O)c1ccc(-c2ccc(NC(=O)c3cn4c(C)cccc4n3)cc2)o1)C1CCCCC1 [N-[4-(5-{[(1S)-1-cyclohexyl-2-(methylamino)-2-oxoethyl]carbamoyl}furan-2-yl)phenyl]-5-methylimidazo[1,2-a]pyridine-2-carboxamide]	150
CNC(=O)[C@@H](NC(=O)c1ccc(-c2ccc(-c3ccc(F)cc3)cn2)o1)C(C)C [5-[5-(4-Fluoro-phenyl)-pyridin-2-yl]-furan-2-carboxylic acid ((S)-2-methyl-1-methylcarbamoyl-propyl)-amide]	78
CNC(=O)[C@@H](NC(=O)c1ccc(-c2ccc(NC(=O)c3cn4c(C#N)cccc4n3)cc2)o1)C1CCCCC1 [5-Cyano-N-[4-(5-{[(1S)-1-cyclohexyl-2-(methylamino)-2-oxoethyl]carbamoyl}furan-2-yl)phenyl]imidazo[1,2-a]pyridine-2-carboxamide]	103
CNC(=O)[C@@H](NC(=O)c1ccc(-c2cccc(CNC(=O)C3CCCCC3)c2)o1)C(C)C [5-{3-[(Cyclohexanecarbonyl-amino)-methyl]-phenyl}-furan-2-carboxylic acid ((S)-2-methyl-1-methylcarbamoyl-propyl)-amide]	165
CCc1ccc(-c2ccc(C(=O)N[C@H](C(=O)NC)C3CCCCC3)o2)cc1 [N-[(1S)-1-cyclohexyl-2-(methylamino)-2-oxoethyl]-5-(4-ethylphenyl)furan-2-carboxamide]	315
CNC(=O)[C@@H](NC(=O)c1ccc(-c2ccc(C#N)cc2)o1)C1CCCCC1 [5-(4-cyanophenyl)-N-[(1S)-1-cyclohexyl-2-(methylamino)-2-oxoethyl]furan-2-carboxamide]	175

Structure (SMILES)	IC50 [nM]
CCOc1ccc(-c2ccc(C(=O)N[C@H](C(=O)NC)C3CCCCC3)o2)nc1 [N-[(1S)-1-cyclohexyl-2-(methylamino)-2-oxoethyl]-5-(5-ethoxypyridin-2-yl)furan-2-carboxamide]	32
CNC(=O)[C@@H](NC(=O)c1ccc(-c2cccc(CNC(=O)c3cc(C)no3)c2)o1)C(C)C [3-Methyl-isoxazole-5-carboxylic acid 3-[5-((S)-2-methyl-1-methylcarbamoyl-propylcarbamoyl)-furan-2-yl]-benzylamide]	280
CNC(=O)[C@@H](NC(=O)c1ccc(-c2cccc(CNC(=O)c3ccc(C)cc3)c2)o1)C(C)C [5-{3-[(4-Methyl-benzoylamino)-methyl]-phenyl}-furan-2-carboxylic acid ((S)-2-methyl-1-methylcarbamoyl-propyl)-amide]	175
CNC(=O)[C@@H](NC(=O)c1ccc(-c2ccc(OCc3cccnc3)cn2)o1)C1CCCCC1 [N-[(1S)-1-cyclohexyl-2-(methylamino)-2-oxoethyl]-5-[5-(pyridin-3-ylmethoxy)pyridin-2-yl]furan-2-carboxamide]	2
CNC(=O)[C@@H](NC(=O)c1ccc(-c2cccc(CNC(=O)NC(C)C)c2)o1)C1CCCCC1 [N-[(1S)-1-cyclohexyl-2-(methylamino)-2-oxoethyl]-5-(3-{[(propan-2-ylcarbamoyl)amino]methyl}phenyl)furan-2-carboxamide]	205
CNC(=O)[C@@H](NC(=O)c1ccc(-c2cccc(CNC(=O)c3ccc(C(C)C)cc3)c2)o1)C(C)C [5-{3-[(4-Isopropyl-benzoylamino)-methyl]-phenyl}-furan-2-carboxylic acid ((S)-2-methyl-1-methylcarbamoyl-propyl)-amide]	225
CNC(=O)[C@@H](NC(=O)c1ccc(-c2cccc(CNC(=O)c3cccnc3)c2)o1)C(C)C [N-[3-(5-{[(1S)-2-methyl-1-(methylcarbamoyl)propyl]carbamoyl}-2-furyl)benzyl]nicotinamide]	355
CNC(=O)[C@@H](NC(=O)c1ccc(-c2cccc(CNC(=O)C3CC3)c2)o1)C1CCCCC1 [N-[(1S)-1-cyclohexyl-2-(methylamino)-2-oxoethyl]-5-(3-{[(cyclopropylcarbonyl)amino]methyl}phenyl)furan-2-carboxamide]	397
CNC(=O)[C@@H](NC(=O)c1ccc(-c2ccc(OCc3cccc(C)c3)cn2)o1)C1CCCCC1 [N-[(1S)-1-cyclohexyl-2-(methylamino)-2-oxoethyl]-5-{5-[(3-methylbenzyl)oxy]pyridin-2-yl}furan-2-carboxamide]	36
CNC(=O)[C@@H](NC(=O)c1ccc(-c2cccc(CNC(=O)c3ccnn3C)c2)o1)C1CCCCC1 [N-[3-(5-{[(1S)-1-cyclohexyl-2-(methylamino)-2-oxoethyl]carbamoyl}furan-2-yl)benzyl]-1-methyl-1H-pyrazole-5-carboxamide]	143
C[C@@H](CO)NC(=O)[C@@H](NC(=O)c1ccc(-c2ccc(C#N)cc2)o1)C1CCCCC1 [5-(4-cyanophenyl)-N-[(1S)-1-cyclohexyl-2-{[(2S)-1-hydroxypropan-2-yl]amino}-2-oxoethyl]furan-2-carboxamide]	195
CCOc1ccc(-c2ccc(C(=O)N[C@H](C(=O)NC)C3CCCCC3)o2)cc1 [N-[(1S)-1-cyclohexyl-2-(methylamino)-2-oxoethyl]-5-(4-ethoxyphenyl)furan-2-carboxamide]	270
CNC(=O)[C@@H](NC(=O)c1ccc(-c2cccc(CNC(=O)c3nc(C(F)(F)F)cs3)c2)o1)C(C)C [4-Trifluoromethyl-thiazole-2-carboxylic acid 3-[5-((S)-2-methyl-1-methylcarbamoyl-propylcarbamoyl)-furan-2-yl]-benzylamide]	6
CNC(=O)[C@@H](NC(=O)c1ccc(-c2ccc(-c3ccc(C(F)(F)F)cc3)cc2)o1)C1CCCCC1 [5-(4′-Trifluoromethyl-biphenyl-4-yl)-furan-2-carboxylic acid ((S)-cyclohexyl-methylcarbamoyl-methyl)-amide]	373
CNC(=O)[C@@H](NC(=O)c1ccc(-c2ccc(C#N)cc2)o1)C1CCOCC1 [5-(4-cyanophenyl)-N-[(1S)-2-(methylamino)-2-oxo-1-(tetrahydro-2H-pyran-4-yl)ethyl]furan-2-carboxamide]	90
CNC(=O)[C@@H](NC(=O)c1ccc(-c2ccc(Cl)cc2)o1)C1CCCC1 [5-(4-Chlorophenyl)-N-[(1S)-1-cyclopentyl-2-(methylamino)-2-oxoethyl]furan-2-carboxamide]	465
CNC(=O)[C@@H](NC(=O)c1ccc(-c2cccc(CNC(=O)C3CNCCO3)c2)o1)C(C)C (stereo partly drawn) [N-[3-(5-{[(1S)-2-methyl-1-(methylcarbamoyl)propyl]carbamoyl}-2-furyl)benzyl]morpholine-2-carboxamide]	370
